Laboratory results from US8901111B2, “Aryl-substituted heterocyclic urea modulators of fatty acid amide hydrolase” (Janssen Pharmaceutica NV, priority 2009, dated 2014).
Counter-ions that a name gives are not always drawn.

What was measured:
FAAH = molecular target: T1, FAAH (Homo sapiens, UniProt O00519); test: Assay Method 1: FAAH assay, 3H-anandamide hydrolysis in homogenate of cells transfected with human FAAH; assay type: biochemical; parameters: expressed in transfected cells; crude homogenate (T84 cell pellets named as alternative); conditions: cell homogenate, 3H-AEA 80 nM, 1 h at rt, average of results
T1 sequence (O00519 1-579): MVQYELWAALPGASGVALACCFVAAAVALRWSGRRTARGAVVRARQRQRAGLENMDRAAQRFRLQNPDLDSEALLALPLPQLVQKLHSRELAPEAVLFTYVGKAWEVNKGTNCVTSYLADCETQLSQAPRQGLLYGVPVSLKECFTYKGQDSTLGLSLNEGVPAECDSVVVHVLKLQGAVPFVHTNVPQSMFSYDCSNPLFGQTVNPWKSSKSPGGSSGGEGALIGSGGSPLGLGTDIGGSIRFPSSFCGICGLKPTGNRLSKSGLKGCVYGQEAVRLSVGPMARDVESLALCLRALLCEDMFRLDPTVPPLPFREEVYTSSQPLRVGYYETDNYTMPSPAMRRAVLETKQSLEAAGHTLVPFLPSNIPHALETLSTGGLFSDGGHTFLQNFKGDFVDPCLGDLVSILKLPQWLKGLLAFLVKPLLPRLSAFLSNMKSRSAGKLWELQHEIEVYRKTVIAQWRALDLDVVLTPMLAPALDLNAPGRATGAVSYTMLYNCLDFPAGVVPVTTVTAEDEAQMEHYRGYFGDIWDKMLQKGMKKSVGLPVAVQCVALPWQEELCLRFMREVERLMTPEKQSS
Protocol: A. Transfection of Cells with Human FAAH
(§1) A 10-cm tissue culture dish with a confluent monolayer of SK-N-MC cells was split 2 days (d) prior to transfection. Using sterile technique, the media was removed and the cells were detached from the dish by the addition of trypsin. One fifth of the cells were then placed onto a new 10-cm dish. Cells were grown in a 37° C. incubator with 5% CO2 in Minimal Essential Media Eagle with 10% Fetal Bovine Serum. After 2 d, cells were approximately 80% confluent. These cells were removed from the dish with trypsin and pelleted in a clinical centrifuge. The pellet was re-suspended in 400 μL complete media and transferred to an electroporation cuvette with a 0.4 cm gap between the electrodes. Supercoiled human FAAH cDNA (1 μg) was added to the cells and mixed. The voltage for the electroporation was set at 0.25 kV, and the capacitance was set at 960 After electroporation, the cells were diluted into complete media (10 mL) and plated onto four 10-cm dishes. Because of the variability in the efficiency of electroporation, four different concentrations of cells were plated. The ratios used were 1:20, 1:10, and 1:5, with the remainder of the cells being added to the fourth dish. The cells were allowed to recover for 24 h before adding the selection media (complete media with 600 μg/mL G418). After 10 d, dishes were analyzed for surviving colonies of cells. Dishes with well-isolated colonies were used. Cells from individual colonies were isolated and tested.
(§2) T84 frozen cell pellets or transfected SK-N-MC cells (contents of 1×15 cm culture dishes) were homogenized in 50 mL of FAAH assay buffer (125 mM Tris, 1 mM EDTA, 0.2% Glycerol, 0.02% Triton X-100, 0.4 mM Hepes, pH 9). The assay mixture consisted of 50 μL of the cell homogenate, 10 μL of the test compound, and 40 μL of anandamide [1-^3H-ethanolamine] (^3H-AEA, Perkin-Elmer, 10.3 Ci/mmol), which was added last, for a final tracer concentration of 80 nM. The reaction mixture was incubated at rt for 1 h. During the incubation, 96-well Multiscreen filter plates (catalog number MAFCNOB50; Millipore, Bedford, Mass., USA) were loaded with 25 μL of activated charcoal (Multiscreen column loader, catalog number MACL09625, Millipore) and washed once with 100 μL of MeOH. Also during the incubation, 96-well DYNEX MicroLite plates (catalog number NL510410) were loaded with 100 μL of MicroScint40 (catalog number 6013641, Packard Bioscience, Meriden, Conn., USA). After the 1 h incubation, 60 μL of the reaction mixture were transferred to the charcoal plates, which were then assembled on top of the DYNEX plates using Centrifuge Alignment Frames (catalog number MACF09604, Millipore). The unbound labeled ethanolamine was centrifuged through to the bottom plate (5 min at 2000 rpm), which was preloaded with the scintillant, as described above. The plates were sealed and left at rt for 1 h before counting on a Hewlett Packard TopCount.
(§3) Results for compounds tested in these assays are summarized in Table 1, as an average of results obtained. Compounds were tested in the free base or trifluoroacetic acid salt form. Compounds tested in the trifluoroacetic acid salt form are indicated as such by a “*” designation after the example number. Where activity is shown as greater than (>) a particular value, the value is the solubility limit of the compound in the assay medium or the highest concentration tested in the assay.

rat FAAH = molecular target: T2, rat FAAH (Rattus norvegicus, UniProt P97612); test: Assay Method 2: FAAH assay, 3H-anandamide hydrolysis in homogenate of cells transfected with rat FAAH; assay type: biochemical; conditions: cell homogenate, 3H-AEA 80 nM, 1 h at rt, average of results
T2 construct: expressed in transfected cells; crude homogenate
T2 sequence (P97612 1-579): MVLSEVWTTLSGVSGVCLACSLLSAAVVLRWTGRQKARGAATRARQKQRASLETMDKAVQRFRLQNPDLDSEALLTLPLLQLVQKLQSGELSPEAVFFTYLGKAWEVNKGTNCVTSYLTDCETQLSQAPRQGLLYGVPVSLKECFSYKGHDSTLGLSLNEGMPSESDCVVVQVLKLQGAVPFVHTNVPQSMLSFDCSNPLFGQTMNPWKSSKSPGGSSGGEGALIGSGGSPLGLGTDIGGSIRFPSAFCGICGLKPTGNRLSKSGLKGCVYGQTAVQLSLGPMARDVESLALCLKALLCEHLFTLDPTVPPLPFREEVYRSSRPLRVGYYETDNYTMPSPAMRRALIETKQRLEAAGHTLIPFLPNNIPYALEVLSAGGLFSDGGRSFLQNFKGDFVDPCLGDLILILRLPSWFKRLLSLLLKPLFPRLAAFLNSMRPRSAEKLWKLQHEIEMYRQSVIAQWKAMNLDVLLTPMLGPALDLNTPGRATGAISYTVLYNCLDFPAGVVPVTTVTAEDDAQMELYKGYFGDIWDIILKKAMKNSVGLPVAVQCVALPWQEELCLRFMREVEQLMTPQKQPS
Protocol: A. Transfection of Cells with Rat FAAH
as §1, with “rat” for “human”, “960 μF.” for “960”
as §2, §3

Row | Compound | IC50 (FAAH) [nM] | IC50 (rat FAAH) [nM]
1 | CS(=O)(=O)c1ccc(Oc2cccc(OCC3CCN(C(=O)Nc4cccnc4)C3)c2)cc1 (centres unmarked) [Example 52, 3-({3-[4-(Methylsulfonyl)phenoxy]phenoxy}methyl)-N-pyridin-3-ylpyrrolidine-1-carboxamide] | 100 | 1000
2 | O=C(Nc1cccnc1)N1CC(COc2ccc3c(c2)OCO3)C1 [Example 7, 3-(Benzo[1,3]dioxol-5-yloxymethyl)-azetidine-1-carboxylic acid pyridin-3-ylamide] | > 10000 | > 10000
3 | O=C(Nc1cnccc1Cl)N1CC(CCOc2cccc(Oc3ccc(Cl)cc3)c2)C1 [Example 28, 3-{2-[3-(4-Chloro-phenoxy)-phenoxy]-ethyl}-azetidine-1-carboxylic acid (4-chloro-pyridin-3-yl)-amide] | 1 | 1
4 | O=C(Nc1cccnc1)N1CC(CCOc2cccc(Oc3ccc(Cl)cc3)c2)C1 [Example 44, 3-{2-[3-(4-Chloro-phenoxy)-phenoxy]-ethyl}-azetidine-1-carboxylic acid pyridin-3-ylamide] | 13 | 27
5 | O=C(Nc1cccc2nonc12)N1CCC(Cc2ccc3c(c2)OC(F)(F)O3)C1 (centres unmarked) [Example 73, N-2,1,3-Benzoxadiazol-4-yl-3-[(2,2-difluoro-1,3-benzodioxol-5-yl)methyl]pyrrolidine-1-carboxamide] | > 10000 | 
6 | O=C(Nc1cccnc1)N1CCC(CCOc2cccc(OC(F)(F)F)c2)C1 (centres unmarked) [Example 59, 3-[2-(3-Trifluoromethoxy-phenoxy)-ethyl]-pyrrolidine-1-carboxylic acid pyridin-3-ylamide] | > 10000 | > 10000
7 | CS(=O)(=O)c1ccc(Oc2cccc(OCC3CN(C(=O)Nc4cccnc4)C3)c2)cc1 [Example 24, 3-[3-(4-Methanesulfonyl-phenoxy)-phenoxymethyl]-azetidine-1-carboxylic acid pyridin-3-ylamide] | 58 | 380
8 | O=C(Nc1cnccc1Cl)N1CCC(Cc2cccc(Oc3ccc(F)cc3)c2)C1 (centres unmarked) [Example 75, 3-[3-(4-Fluoro-phenoxy)-benzyl]-pyrrolidine-1-carboxylic acid (4-chloro-pyridin-3-yl)-amide] | 45 | 30
9 | O=C(Nc1cccnc1)N1CC(COc2ccc3ncccc3c2)C1 [Example 15, 3-(Quinolin-6-yloxymethyl)-azetidine-1-carboxylic acid pyridin-3-ylamide, trifluoroacetate salt] | > 10000 | > 10000
10 | O=C(Nc1cccc2nccn12)N1CCC(Cc2cccc(Oc3ccc(F)cc3)c2)C1 (centres unmarked) [Example 76, 3-[3-(4-Fluoro-phenoxy)-benzyl]-pyrrolidine-1-carboxylic acid imidazo[1,2-a]pyridin-5-ylamide] | 400 | 70
11 | O=C(Nc1cnccc1Cl)N1CCC(CCOc2ccc(OC(F)(F)F)cc2)C1 (centres unmarked) [Example 62, 3-[2-(4-Trifluoromethoxy-phenoxy)-ethyl]-pyrrolidine-1-carboxylic acid (4-chloro-pyridin-3-yl)-amide] | 1300 | 

Continued, values first:

Row | IC50 (FAAH) [nM] | IC50 (rat FAAH) [nM] | Compound
12 | 936 |  | O=C(Nc1cnccc1Cl)N1CC(CCOCc2ccccc2)C1 [Example 70, 3-(2-Benzyloxy-ethyl)-azetidine-1-carboxylic acid (4-chloropyridin-3-yl)-amide]
13 | 370 | 1600 | C#Cc1cccc(OCC2CN(C(=O)Nc3cccnc3)C2)c1 [Example 11, 3-(3-Ethynyl-phenoxymethyl)-azetidine-1-carboxylic acid pyridin-3-ylamide]
14 | 275 | 739 | O=C(Nc1cnccc1Cl)N1CC(CCOCc2ccc(Cl)cc2)C1 [Example 65, 3-[2-(4-Chloro-benzyloxy)-ethyl]-azetidine-1-carboxylic acid (4-chloro-pyridin-3-yl)-amide]
15 | > 10000 | > 10000 | O=C(Nc1cccnc1)N1CC(COc2ccccc2)C1 [Example 2, 3-Phenoxymethyl-azetidine-1-carboxylic acid pyridin-3-ylamide, trifluoroacetate salt]
16 | 849 | 1230 | O=C(Nc1cccnc1)N1CC(CCOCc2ccc(Cl)c(Cl)c2)C1 [Example 68, 3-[2-(3,4-Dichloro-benzyloxy)-ethyl]-azetidine-1-carboxylic acid pyridin-3-ylamide, trifluoroacetate salt]
17 | > 10000 |  | O=C(Nc1cccnc1)N1CC(CCOc2ccc(OC(F)(F)F)cc2)C1 [Example 30, 3-[2-(4-Trifluoromethoxy-phenoxy)-ethyl]-azetidine-1-carboxylic acid pyridin-3-ylamide]
18 | 6000 |  | O=C(Nc1cccnc1)N1CCC(CCOc2ccc(Cl)c(Cl)c2)C1 (centres unmarked) [Example 53, 3-[2-(3,4-Dichloro-phenoxy)-ethyl]-pyrrolidine-1-carboxylic acid pyridin-3-ylamide]
19 |  | > 10000 | O=C(Nc1cccnc1)N1CC(CCOCc2ccccc2)C1 [Example 69, 3-(2-Benzyloxy-ethyl)-azetidine-1-carboxylic acid pyridin-3-ylamide]
